pEC50: −log10 of the molar value. Like-named read-outs stand apart in the source and are kept apart here.
Biological target: T1, F508delCFTR (Homo sapiens, UniProt P13569, DEL508-508)
T1 construct: expressed in transfected cells; host or cells: CFBE41o- (human lung derived epithelial cell line), doxycycline-inducible expression
Assay: Cell Surface Expression-Horse Radish Peroxidase (CSE-HRP) assay
Format: cell-based
Details: CFBE41o-F508delCFTR-HRP cells; for Maximum % activity (with co-corrector): with co-corrector (2 μM); for Maximum % activity (with co-corrector) / Maximum % activity (without co-corrector): normalized to on-plate positive control, highest concentration 20 μM
How it was run: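 CFBE41o- cells expressed F508delCFTR with HRP in the fourth exofacial loop, induced by 0.5 μg/mL doxycycline for 72 h at 37 °C. Compounds alone or with 2 μM co-corrector ran 18–24 h at 33 °C, 8-point 3-fold from 20 μM. Washed-cell luminol luminescence was normalized to DMSO and positive control, fitted sigmoidally for EC50 (three plates).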

[1] = test compound without co-corrector, 18-24 hours at 33° C., read-out: EC50 (without co-corrector)
[2] = with co-corrector (2 μM of 3-[(2R,4R)-4-({[1-(2,2-difluoro-1,3-benzodioxol-5-yl)cyclopropyl]carbonyl}amino)-7-methoxy-3,4-dihydro-2H-chromen-2-yl]benzoic acid), read-out: EC50 (with co-corrector)

T1 sequence (P13569 with tags, fused parts or gaps DEL508-508): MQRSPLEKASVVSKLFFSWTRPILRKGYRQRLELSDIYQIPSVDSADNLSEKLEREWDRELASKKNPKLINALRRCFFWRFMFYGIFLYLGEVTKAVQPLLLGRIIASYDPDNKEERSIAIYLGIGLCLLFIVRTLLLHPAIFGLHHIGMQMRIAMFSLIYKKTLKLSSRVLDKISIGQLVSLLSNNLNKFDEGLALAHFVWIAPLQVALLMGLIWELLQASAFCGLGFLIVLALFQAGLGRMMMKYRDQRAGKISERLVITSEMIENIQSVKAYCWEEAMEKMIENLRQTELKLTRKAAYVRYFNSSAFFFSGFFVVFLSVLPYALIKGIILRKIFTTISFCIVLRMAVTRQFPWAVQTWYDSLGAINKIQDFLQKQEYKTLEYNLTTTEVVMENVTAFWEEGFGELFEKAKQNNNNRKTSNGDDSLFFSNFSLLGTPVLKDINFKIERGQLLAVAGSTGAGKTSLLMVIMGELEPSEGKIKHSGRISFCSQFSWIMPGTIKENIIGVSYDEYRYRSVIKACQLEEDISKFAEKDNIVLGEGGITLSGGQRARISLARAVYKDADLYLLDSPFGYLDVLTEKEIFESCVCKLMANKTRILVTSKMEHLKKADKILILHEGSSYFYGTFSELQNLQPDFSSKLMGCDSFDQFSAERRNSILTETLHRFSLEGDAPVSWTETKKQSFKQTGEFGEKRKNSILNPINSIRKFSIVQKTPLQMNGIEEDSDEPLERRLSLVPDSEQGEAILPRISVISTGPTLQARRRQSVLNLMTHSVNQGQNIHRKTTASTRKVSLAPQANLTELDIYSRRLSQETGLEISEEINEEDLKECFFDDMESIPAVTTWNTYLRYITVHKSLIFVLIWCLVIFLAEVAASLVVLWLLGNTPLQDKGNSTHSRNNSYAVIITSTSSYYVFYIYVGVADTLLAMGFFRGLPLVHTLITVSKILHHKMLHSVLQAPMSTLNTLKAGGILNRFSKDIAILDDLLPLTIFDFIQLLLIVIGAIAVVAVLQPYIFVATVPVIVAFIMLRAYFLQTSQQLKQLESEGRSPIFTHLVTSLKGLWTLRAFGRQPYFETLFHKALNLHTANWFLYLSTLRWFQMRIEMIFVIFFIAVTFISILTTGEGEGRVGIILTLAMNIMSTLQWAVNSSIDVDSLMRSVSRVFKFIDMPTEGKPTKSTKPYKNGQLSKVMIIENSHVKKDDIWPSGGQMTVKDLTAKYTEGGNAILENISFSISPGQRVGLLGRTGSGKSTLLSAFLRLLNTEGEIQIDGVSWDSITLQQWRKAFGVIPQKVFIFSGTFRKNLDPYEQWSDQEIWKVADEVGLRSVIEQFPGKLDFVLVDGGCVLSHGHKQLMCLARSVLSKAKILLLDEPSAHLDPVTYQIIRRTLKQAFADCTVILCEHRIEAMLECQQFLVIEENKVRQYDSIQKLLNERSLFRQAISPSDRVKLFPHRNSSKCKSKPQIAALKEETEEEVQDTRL

Molecule | pEC50 [1] | pEC50 [2] | Maximum % activity (with co-corrector) | Maximum % activity (without co-corrector)
COc1ccc(C(C)(C)C)cc1CO[C@H]1[C@H](C(C)(C)OC)[C@@H](C(=O)O)N(C(=O)[C@@H]2CCCCO2)[C@H]1c1ccccc1C(C)C [Example 270, (2S,3R,4S,5S)-4-[(5-tert-butyl-2-methoxyphenyl)methoxy]-3-(2-methoxypropan-2-yl)-1-[(2S)-oxane-2-carbonyl]-5-[2-(propan-2-yl)phenyl]pyrrolidine-2-carboxylic acid] | > 6.00 | > 6.00 | +++ (≥350) | +++ (≥200)
COc1ccc(C(F)(F)F)cc1CO[C@H]1[C@H](C(C)(C)C)[C@@H](C(=O)O)N(C(=O)[C@@H]2CCCCO2)[C@H]1c1ccccc1C [Example 174, (2S,3R,4S,5S)-3-tert-butyl-4-{[2-methoxy-5-(trifluoromethyl)phenyl]methoxy}-5-(2-methylphenyl)-1-[(2S)-oxane-2-carbonyl]pyrrolidine-2-carboxylic acid] | > 6.00 | > 6.00 | +++ (≥350) | +++ (≥200)
COc1ccc(C(C)(C)C)cc1CO[C@H]1[C@H](C(C)(C)C)[C@@H](C(=O)O)N(C(=O)[C@@H]2CCCCO2)[C@H]1c1ccccc1C [Example 188, (2S,3R,4S,5S)-3-tert-butyl-4-[(5-tert-butyl-2-methoxyphenyl)methoxy]-5-(2-methylphenyl)-1-[(2S)-oxane-2-carbonyl]pyrrolidine-2-carboxylic acid] | > 6.00 | > 6.00 | +++ (≥350) | +++ (≥200)
CCOC(=O)N1[C@H](C(=O)O)[C@@H](C(C)(C)C)[C@H](OCc2cc(C(F)(F)F)cnc2OC)[C@@H]1c1cccc(C(C)(C)C)c1 [Example 152, (2S,3R,4S,5S)-3-tert-butyl-5-(3-tert-butylphenyl)-1-(ethoxycarbonyl)-4-{[2-methoxy-5-(trifluoromethyl)pyridin-3-yl]methoxy}pyrrolidine-2-carboxylic acid] | > 6.00 | 5.00 to 6.00 | ++ (≥150 and <350) | + (<100)
COc1ncc(C2CCC2)cc1CO[C@H]1[C@H](C(C)(C)C)[C@@H](C(=O)O)N(C(=O)OC(C)C)[C@H]1c1ccccc1 [Example 45, (2S,3R,4S,5S)-3-tert-butyl-4-[(5-cyclobutyl-2-methoxypyridin-3-yl)methoxy]-5-phenyl-1-{[(propan-2-yl)oxy]carbonyl}pyrrolidine-2-carboxylic acid] | 5.00 to 6.00 | 5.00 to 6.00 | +++ (≥350) | ++ (≥100 and <200)
COc1nc2cc(C)cc(C)c2cc1CO[C@H]1[C@H](C(C)(C)C)[C@@H](C(=O)O)N(C(=O)OC(C)C)[C@H]1c1cccnc1OC(C)C [Example 253, (2S,3R,4S,5S)-3-tert-butyl-4-[(2-methoxy-5,7-dimethylquinolin-3-yl)methoxy]-1-{[(propan-2-yl)oxy]carbonyl}-5-{2-[(propan-2-yl)oxy]pyridin-3-yl}pyrrolidine-2-carboxylic acid] | 5.00 to 6.00 | 5.00 to 6.00 | +++ (≥350) | +++ (≥200)
COc1ccc(-c2ccccc2[C@H]2[C@@H](OCc3cc(C(F)(F)F)cnc3OC)[C@H](C(C)(C)C)[C@@H](C(=O)O)N2C(=O)[C@@H]2CCCCO2)cn1 [Example 205, (2S,3R,4S,5S)-3-tert-butyl-5-[2-(6-methoxypyridin-3-yl)phenyl]-4-{[2-methoxy-5-(trifluoromethyl)pyridin-3-yl]methoxy}-1-[(2S)-oxane-2-carbonyl]pyrrolidine-2-carboxylic acid] | 5.00 to 6.00 | 5.00 to 6.00 | +++ (≥350) | ++ (≥100 and <200)
COc1ncc(C(F)(F)F)cc1CO[C@H]1[C@H](C(C)(C)C)[C@@H](C(=O)O)N(C(=O)OC(C)C)[C@H]1c1ccccc1C1=CCOCC1 [Example 108, (2S,3R,4S,5S)-3-tert-butyl-5-[2-(3,6-dihydro-2H-pyran-4-yl)phenyl]-4-{[2-methoxy-5-(trifluoromethyl)pyridin-3-yl]methoxy}-1-{[(propan-2-yl)oxy]carbonyl}pyrrolidine-2-carboxylic acid] | 5.00 to 6.00 | 5.00 to 6.00 | +++ (≥350) | ++ (≥100 and <200)

Further lines, results first:

pEC50 [1] | pEC50 [2] | Maximum % activity (with co-corrector) | Maximum % activity (without co-corrector) | Molecule
5.00 to 6.00 | 5.00 to 6.00 | ++ (≥150 and <350) | + (<100) | COc1ncc(C(F)(F)F)cc1CO[C@H]1[C@H](C(C)(C)C)[C@@H](C(=O)O)N(C(=O)OC(C)C)[C@H]1c1c(F)cccc1F [Example 167, (2S,3R,4S,5S)-3-tert-butyl-5-(2,6-difluorophenyl)-4-{[2-methoxy-5-(trifluoromethyl)pyridin-3-yl]methoxy}-1-{[(propan-2-yl)oxy]carbonyl}pyrrolidine-2-carboxylic acid]
5.00 to 6.00 | > 6.00 | +++ (≥350) | +++ (≥200) | (2S,3R,4S,5S)-4-[(5-bromo-2-methoxypyridin-3-yl)methoxy]-3-tert-butyl-5-(2-methylphenyl)-1-[(2S)-oxane-2-carbonyl]pyrrolidine-2-carboxylic acid [Example 186]
5.00 to 6.00 | 5.00 to 6.00 | +++ (≥350) | ++ (≥100 and <200) | CCOc1cncc(-c2ccccc2[C@H]2[C@@H](OCc3cc(C(F)(F)F)cnc3OC)[C@H](C(C)(C)C)[C@@H](C(=O)O)N2C(=O)[C@@H]2CCCCO2)c1 [Example 209, (2S,3R,4S,5S)-3-tert-butyl-5-[2-(5-ethoxypyridin-3-yl)phenyl]-4-{[2-methoxy-5-(trifluoromethyl)pyridin-3-yl]methoxy}-1-[(2S)-oxane-2-carbonyl]pyrrolidine-2-carboxylic acid]
5.00 to 6.00 | > 6.00 | +++ (≥350) | +++ (≥200) | COc1ncc(C2CCC2)cc1CO[C@H]1[C@H](C(C)(C)C)[C@@H](C(=O)O)N(C(=O)[C@@H]2CCCCO2)[C@H]1c1cccc(Cl)c1C [Example 231, (2S,3R,4S,5S)-3-tert-butyl-5-(3-chloro-2-methylphenyl)-4-[(5-cyclobutyl-2-methoxypyridin-3-yl)methoxy]-1-[(2S)-oxane-2-carbonyl]pyrrolidine-2-carboxylic acid]
5.00 to 6.00 | 5.00 to 6.00 | +++ (≥350) | ++ (≥100 and <200) | COc1ncc(C(C)(C)C)cc1CO[C@H]1[C@H](C(C)(C)C)[C@@H](C(=O)O)N(C(=O)OC(C)C)[C@H]1c1ccccc1 [Example 63, (2S,3R,4S,5S)-3-tert-butyl-4-[(5-tert-butyl-2-methoxypyridin-3-yl)methoxy]-5-phenyl-1-{[(propan-2-yl)oxy]carbonyl}pyrrolidine-2-carboxylic acid]

— patent US10399940B2, “Substituted pyrrolidines and methods of use” (AbbVie S.à.r.l., priority 2016, dated 2019)
